{"source": "patent US8618063B2", "about": "“Method for treating a synucleinopathy” (The Board of Trustees of the University of Illinois, priority 2008, dated 2013)", "key": {"[1]": {"system": "α-synuclein mutant Ala30Pro effects on fast axonal transport", "assay": "Isolated axoplasm: blocking of mutant α-synuclein (Ala30Pro) effects on fast axonal transport", "assay_type": "cell-based, squid Loligo pealeii", "conditions": "coperfused with α-synuclein mutant Ala30Pro, FIG. 3", "experimental": "(§1) Axoplasm was extruded from giant axons of the squid Loligo pealeii (Marine Biological Laboratory) according to established methods (Brady, et al. (1985) Cell Motil. 5(2):81-101). Axons were 400-600 μm in diameter and provided ≈5 μl of axoplasm per axon. Wild-type α-synuclein or α-synuclein with point mutations associated with familial Parkinson's disease (Ala30Pro or Ala53Thr), MPP+, enzymes or inhibitors were diluted into X/2 buffer (175 mM potassium aspartate, 65 mM taurine, 35 mM betaine, 25 mM glycine, 10 mM HEPES, 6.5 mM MgCl2, 5 mM EGTA, 1.5 mM CaCl2, 0.5 mM glucose, pH 7.2) supplemented with 2-5 mM ATP and 20 μl of this mix was added to perfusion chambers (Brady, et al. (1985) supra). Preparations were analyzed on a ZEISS AXIOMAT with a 100×, 1.3 na objective, and DIC optics. Hamamatsu Argus 20 and Model 2400 CCD camera were used for image processing and analysis. Organelle velocities were measured with a Photonics Microscopy C2117 video manipulator (Hamamatsu).\nAccordingly, these inhibitors were coperfused with pathological α-synuclein mutant Ala30Pro and fast axonal transport was monitored. […] Similarly, the effects of α-synuclein mutant Ala30Pro could be blocked by a PKCmu peptide substrate (FIG. 3B) and an inhibitor of Src-Family Tyrosine Kinases (PP2) (FIG. 3C)."}, "[2]": {"system": "MPP+ effects on fast axonal transport", "assay": "Isolated axoplasm: blocking of MPP+ effects on fast axonal transport", "assay_type": "cell-based, squid Loligo pealeii", "conditions": "for blocking of MPP+ effects on fast axonal transport: FIG. 5B", "experimental": "as §1\n(§2) MPTP/MPP+ is the best characterized example of toxin-induced Parkinson's disease. The effects of MPP+ on fast axonal transport were examined in axoplasm as was dynein phosphorylation in cells. […] Based on reports that MPP+ could activate caspase3 (Turmel, et al. (2001) Mov. Disord. 16:185-9) and that caspase3 can activate a PKC by proteolytic cleavage (Kaul, et al. (2003) Eur. J. Neurosci. 18:1387-401), the ability of a caspase3 inhibitor to block effects of MPP+ on fast axonal transport was evaluated. […] Further, perfusion with Caspase 3 affected retrograde transport in a manner similar to PKC and MPP+ (retrograde transport=1.462±0.016 μm/sec)."}, "DIC phosphorylation": {"system": "DIC phosphorylation", "assay": "Labeling studies with MPP+ treated cortical neurons", "assay_type": "cell-based", "experimental": "One mCi ^32P phosphate (ICN) was added per dish and incubated for 4 hours. Medium was discarded, cells homogenized in 1 ml of ROLB buffer and processed accordingly to standard methods (Morfini, et al. (2004) supra). Axoplasms were prepared as for video microscopy, but 1 mCi of γ-^32P-ATP was added. After 50 minutes incubation, axoplasms were homogenized in ROLB buffer. A 10 μl aliquot of lysate was precipitated with 15% TCA and radioactivity incorporated into protein determined by scintillation counting. Aliquots of equal counts were used for kinesin immunoprecipitation with 10 μg of 74.1 antibody and Protein G-agarose beads (Pierce). Immunoprecipitates were separated by SDS-PAGE, dried and exposed in a PHOSPHORIMAGER cassette, then scanned and quantified on a TYPHOON (Amersham/Molecular Dynamics).\nas §2"}, "[3]": {"system": "Ala30Pro mutant α-synuclein induced failure of neurotransmission", "assay": "Squid giant synapse: prevention of Ala30Pro α-synuclein induced failure of neurotransmission", "assay_type": "cell-based", "conditions": "co-injection / coperfusion with Ala30Pro α-synuclein", "experimental": "(§3) If they both work by activating PKC and increasing retrograde transport, they might affect availability of synaptic vesicle components in presynaptic terminals. Accordingly, either wild-type α-synuclein, Ala30Pro α-synuclein, or MPP+ were injected into the presynaptic side of the squid giant synapse as described for synaptic vesicles and synapsin (McGuinness, et al. (1989) J. Neurosci. 9:4138-4149; Llinas, et al. (1989) Proc. Nat. Acad. Sci. USA 86:5656-5660). This preparation has been used to evaluate the effects of reagents on presynaptic function by injecting, then stimulating the presynaptic side while recording intracellularly on both pre- and post-synaptic sides (Llinas, et al. (2004) Proc. Natl. Acad. Sci. USA 101:17855-60; Sugimori, et al. (1998) Neuroscience 86:39-51)."}, "[4]": {"system": "MPP+ induced failure of neurotransmission", "assay": "Squid giant synapse: prevention of MPP+ induced failure of neurotransmission", "assay_type": "cell-based", "conditions": "co-injection with MPP+", "experimental": "as §3"}, "[5]": {"system": "Src/Fyn effects on fast axonal transport", "assay": "Isolated axoplasm: blocking of Src/Fyn effects on fast axonal transport", "assay_type": "cell-based, squid Loligo pealeii", "conditions": "concentration not given", "experimental": "as §1\nScreening of nonreceptor tyrosine kinases included Src- and Abl-family members. […] Given that neither kinesin nor dynein are known to have tyrosine phosphorylations, the ability of a broad spectrum PKC inhibitor Gö6976 was included in the assay to block the action of Fyn. Gö6976 inhibition of PKC abolished actions of Src/Fyn on fast axonal transport (FIG. 1D), as did perfusion of the MARCKS peptide."}, "phosphorylation of DIC": {"system": "phosphorylation of DIC", "assay": "NGF/BDNF (Trk receptor) induced shift of dynein intermediate chain", "assay_type": "cell-based", "conditions": "Trk neurotrophin receptors; Gö6976 at 100 nM", "description": "Specifically, NGF and BDNF binding to Trk neurotrophin receptors caused a shift in the apparent molecular weight of dynein intermediate chain (DIC). To identify the kinase pathway involved in this change, more than 30 different kinase and phosphatase inhibitors were screened."}, "PKCα": {"target": "PKCα (Homo sapiens, UniProt P17252)", "conditions": "cited from earlier work"}, "PKCβ": {"target": "PKCβ (Homo sapiens, UniProt P05771)", "sequence (P05771 whole entry, species assumed)": "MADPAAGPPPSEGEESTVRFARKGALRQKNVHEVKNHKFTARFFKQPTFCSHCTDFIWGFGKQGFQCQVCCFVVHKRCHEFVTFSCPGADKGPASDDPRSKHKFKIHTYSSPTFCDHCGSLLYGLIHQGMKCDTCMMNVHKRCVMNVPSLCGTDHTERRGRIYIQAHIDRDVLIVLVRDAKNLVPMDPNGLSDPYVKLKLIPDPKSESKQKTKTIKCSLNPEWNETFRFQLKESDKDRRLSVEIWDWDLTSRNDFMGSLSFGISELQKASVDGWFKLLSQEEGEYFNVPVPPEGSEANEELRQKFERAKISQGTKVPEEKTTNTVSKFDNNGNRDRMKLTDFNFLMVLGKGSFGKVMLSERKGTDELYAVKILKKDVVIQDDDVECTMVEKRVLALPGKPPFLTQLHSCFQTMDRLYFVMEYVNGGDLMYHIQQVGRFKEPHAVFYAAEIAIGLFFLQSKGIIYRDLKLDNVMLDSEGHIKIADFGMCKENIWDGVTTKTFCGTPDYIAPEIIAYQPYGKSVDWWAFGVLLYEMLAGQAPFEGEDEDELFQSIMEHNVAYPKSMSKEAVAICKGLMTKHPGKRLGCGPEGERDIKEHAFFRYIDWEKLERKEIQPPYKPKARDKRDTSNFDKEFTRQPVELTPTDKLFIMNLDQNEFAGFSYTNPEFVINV", "conditions": "cited from earlier work"}, "PKCγ": {"target": "PKCγ (Homo sapiens, UniProt P05129)", "conditions": "cited from earlier work"}, "PKCδ": {"target": "PKCδ (Homo sapiens, UniProt Q05655)", "sequence (Q05655 whole entry)": "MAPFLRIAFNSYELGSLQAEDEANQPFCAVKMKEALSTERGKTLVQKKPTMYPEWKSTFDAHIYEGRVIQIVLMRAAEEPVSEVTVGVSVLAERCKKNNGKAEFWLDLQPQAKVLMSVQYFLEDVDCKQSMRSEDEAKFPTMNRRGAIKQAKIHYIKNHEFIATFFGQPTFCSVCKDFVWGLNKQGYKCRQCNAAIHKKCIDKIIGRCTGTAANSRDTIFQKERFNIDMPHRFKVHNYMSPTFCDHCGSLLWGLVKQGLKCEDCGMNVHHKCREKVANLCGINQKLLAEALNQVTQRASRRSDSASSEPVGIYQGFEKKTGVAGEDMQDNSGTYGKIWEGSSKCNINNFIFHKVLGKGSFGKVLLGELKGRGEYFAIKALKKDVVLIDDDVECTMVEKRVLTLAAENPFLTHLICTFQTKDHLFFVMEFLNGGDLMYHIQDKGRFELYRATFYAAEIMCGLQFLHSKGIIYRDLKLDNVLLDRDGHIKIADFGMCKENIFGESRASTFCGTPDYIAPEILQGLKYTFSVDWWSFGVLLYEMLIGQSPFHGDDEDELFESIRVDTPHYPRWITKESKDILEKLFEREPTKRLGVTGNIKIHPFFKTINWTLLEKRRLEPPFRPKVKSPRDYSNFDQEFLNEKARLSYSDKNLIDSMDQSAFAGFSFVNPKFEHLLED", "conditions": "cited from earlier work"}, "PKCζ": {"target": "T1, PKCζ (Homo sapiens, UniProt Q05513)", "T1 sequence (Q05513 1-592)": "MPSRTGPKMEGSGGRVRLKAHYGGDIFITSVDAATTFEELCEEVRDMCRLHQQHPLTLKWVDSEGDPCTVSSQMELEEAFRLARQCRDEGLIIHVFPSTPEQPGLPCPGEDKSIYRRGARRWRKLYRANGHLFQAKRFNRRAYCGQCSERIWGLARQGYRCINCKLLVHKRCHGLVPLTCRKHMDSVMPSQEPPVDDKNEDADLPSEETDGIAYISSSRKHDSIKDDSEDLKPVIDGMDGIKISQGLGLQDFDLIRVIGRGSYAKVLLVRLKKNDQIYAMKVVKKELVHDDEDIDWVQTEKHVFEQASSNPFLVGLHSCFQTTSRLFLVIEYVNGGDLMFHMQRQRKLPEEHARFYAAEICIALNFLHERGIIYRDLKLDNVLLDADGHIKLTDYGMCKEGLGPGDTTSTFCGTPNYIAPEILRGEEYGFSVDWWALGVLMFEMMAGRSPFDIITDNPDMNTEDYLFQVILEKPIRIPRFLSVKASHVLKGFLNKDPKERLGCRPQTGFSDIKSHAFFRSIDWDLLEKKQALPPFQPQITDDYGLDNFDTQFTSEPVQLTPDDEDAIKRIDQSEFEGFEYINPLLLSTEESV", "conditions": "cited from earlier work"}, "PKCμ": {"target": "T2, PKCμ (Homo sapiens, UniProt Q15139)", "T2 sequence (Q15139 1-912)": "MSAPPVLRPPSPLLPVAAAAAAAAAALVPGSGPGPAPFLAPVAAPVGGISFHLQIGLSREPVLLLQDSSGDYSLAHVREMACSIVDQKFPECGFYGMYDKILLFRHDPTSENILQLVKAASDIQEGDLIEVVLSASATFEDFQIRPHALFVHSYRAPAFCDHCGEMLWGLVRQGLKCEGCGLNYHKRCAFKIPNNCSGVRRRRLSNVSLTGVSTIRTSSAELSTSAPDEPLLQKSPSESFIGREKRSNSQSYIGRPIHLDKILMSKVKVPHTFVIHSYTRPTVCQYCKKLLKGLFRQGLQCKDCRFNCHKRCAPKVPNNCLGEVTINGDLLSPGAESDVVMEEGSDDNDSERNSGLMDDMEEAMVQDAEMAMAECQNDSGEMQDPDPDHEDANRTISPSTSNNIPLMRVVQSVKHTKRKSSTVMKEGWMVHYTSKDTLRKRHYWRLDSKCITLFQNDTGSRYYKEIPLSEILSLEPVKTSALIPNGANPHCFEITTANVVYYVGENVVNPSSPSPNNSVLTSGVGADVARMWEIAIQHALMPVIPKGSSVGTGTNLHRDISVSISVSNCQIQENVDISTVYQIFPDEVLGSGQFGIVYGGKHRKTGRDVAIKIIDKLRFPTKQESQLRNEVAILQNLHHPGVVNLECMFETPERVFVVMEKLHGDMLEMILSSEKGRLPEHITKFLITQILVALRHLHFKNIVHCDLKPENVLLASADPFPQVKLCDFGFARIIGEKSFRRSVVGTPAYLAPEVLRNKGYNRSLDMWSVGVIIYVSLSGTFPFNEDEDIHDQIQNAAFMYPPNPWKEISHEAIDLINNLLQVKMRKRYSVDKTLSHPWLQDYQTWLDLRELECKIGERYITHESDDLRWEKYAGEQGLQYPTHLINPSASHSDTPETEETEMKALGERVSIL", "conditions": "cited from earlier work"}, "fast axonal transport": {"system": "fast axonal transport", "assay": "Motility studies in isolated axoplasm: effect of perfused substance on fast axonal transport", "assay_type": "cell-based, squid Loligo pealeii", "conditions": "substance perfused alone into isolated axoplasm", "experimental": "as §1"}, "PKC": {"system": "PKC", "assay": "PKC activity in axoplasm", "assay_type": "biochemical, squid", "experimental": "In the analysis disclosed herein, 3-4 axoplasms were triturated in KB buffer (10 mM HEPES, pH 7.4, 10 mM MgCl2, 1 mM DTT) and aliquoted. Individual reactions with corresponding in vitro translated AR constructs were started by adding radiolabeled ATP to 100 μM. Reactions were performed in 50 μl, incubated for 20 minutes at room temperature and stopped with 50 μl of 2× sample buffer. Lysates were separated by SDS-PAGE and analyzed by autoradiography."}, "[6]": {"system": "neurotransmission at squid giant synapse", "assay": "Squid giant synapse: neurotransmission after presynaptic injection", "assay_type": "cell-based", "conditions": "injected into presynaptic side of squid giant synapse; observed up to 90 minutes", "experimental": "as §3"}}, "note": "Entries after “also recorded” stand apart in the source; their conditions may differ."}
{"smiles": "COC(=O)CC[C@H](NC(=O)[C@H](CC(=O)OC)NC(=O)OCc1ccccc1)C(=O)N[C@H](C(=O)N[C@@H](CC(=O)OC)C(=O)CF)C(C)C", "note": "[Caspase3 Inhibitor II]", "values": [{"measurement": "blocking of familial Parkinson's disease mutant α-synuclein (Ala30Pro) effects on fast axonal transport", "setting": "[1]; listed as Caspase inhibitor", "result": "ineffective"}, {"measurement": "blocking of familial Parkinson's disease mutant α-synuclein (Ala30Pro) effects on fast axonal transport", "setting": "[1]; listed as inhibitors of Caspase 3", "result": "not effective"}, {"measurement": "blocking of MPP+ effects on fast axonal transport", "setting": "[2]", "result": "completely block"}, {"measurement": "blocking of MPP+ effects on fast axonal transport", "setting": "[2]; listed as caspase3 inhibitor II", "result": "blocked"}, {"measurement": "anterograde transport rate in presence of MPP+ and inhibitor", "setting": "[2]; coperfused with MPP+", "result": "1.527±0.019", "unit": "μm/sec"}, {"measurement": "retrograde transport rate in presence of MPP+ and inhibitor", "setting": "[2]; coperfused with MPP+", "result": "1.187±0.019", "unit": "μm/sec"}, {"measurement": "blocking of MPP+ induced increase in DIC phosphorylation", "setting": "DIC phosphorylation; MPP+ treated cortical neurons", "result": "blocked"}, {"measurement": "prevention of Ala30Pro α-synuclein effect on neurotransmission", "setting": "[3]", "result": "not effective"}, {"measurement": "prevention of MPP+ induced failure of neurotransmission", "setting": "[4]", "result": "prevented"}]}
{"smiles": "COc1ccc2c(c1)c(C1=C(c3c[nH]c4ccccc34)C(=O)NC1=O)cn2CCCN(C)C", "note": "[Gö6983]", "values": [{"measurement": "blocking of Src/Fyn actions on fast axonal transport", "setting": "[5]", "result": "did not block"}, {"measurement": "blocking of familial Parkinson's disease mutant α-synuclein (Ala30Pro) effects on fast axonal transport", "setting": "[1]", "result": "ineffective; also recorded: not effective"}, {"measurement": "blocking of MPP+ effects on fast axonal transport", "setting": "[2]", "result": "blocked"}, {"measurement": "blocking of NGF/BDNF induced shift (phosphorylation) of DIC", "setting": "phosphorylation of DIC", "result": "failed to block"}, {"measurement": "prevention of Ala30Pro α-synuclein effect on neurotransmission", "setting": "[3]", "result": "not effective"}, {"measurement": "IC50", "setting": "PKCα", "result": 7, "unit": "nM"}, {"measurement": "IC50", "setting": "PKCβ", "result": 7, "unit": "nM"}, {"measurement": "IC50", "setting": "PKCγ", "result": 6, "unit": "nM"}, {"measurement": "IC50", "setting": "PKCδ", "result": 10, "unit": "nM"}, {"measurement": "IC50", "setting": "PKCζ", "result": 60, "unit": "nM"}, {"measurement": "IC50", "setting": "PKCμ", "result": 20, "unit": "µM"}]}
{"smiles": "C[n+]1ccc(-c2ccccc2)cc1", "note": "[MPP+]", "values": [{"measurement": "retrograde transport rate", "setting": "fast axonal transport; controls 1.2 μm/sec", "result": "1.461±0.023", "unit": "μm/sec"}, {"measurement": "anterograde transport rate", "setting": "fast axonal transport; controls 1.6 μm/sec", "result": "1.272±0.0032", "unit": "μm/sec"}, {"measurement": "DIC phosphorylation", "setting": "DIC phosphorylation; cortical neurons treated with substance alone", "result": "increased DIC phosphorylation"}, {"measurement": "PKC activity in axoplasm", "setting": "PKC", "result": "activated PKC activity"}, {"measurement": "effect on neurotransmission, in words", "setting": "[6]", "result": "failure of neurotransmission"}]}
